Laboratory results reported in patent US20190330224A1, “ACC INHIBITORS AND USES THEREOF” (Gilead Apollo, LLC, priority 2015, published 2019).
Values after ≈ are worked out from the molar mass of the structure shown. Where two headings read alike, the source gives them in different places.

What was measured:
[1] = system: Fusarium moniliforme (Fm); experiment: Growth inhibition assay of fungal pathogens, Fm; assay type: cell-based; conditions: Fusarium verticillioides, read-out: Concentration at 90% Inhibition, Fm
Experimental: (§1) Compounds of the present invention were evaluated in a growth inhibition assay to determine the ability to control the growth of fungal pathogens, such as Botrtyis cinerea (Bc). Collectotrichum graminicola (Cg), Diplodia maydis (Dm), Fusarium moniliforme (Fm), Fusarium virguliforme (Fv), Phytophthora capsici (Pc), Rhizoctonia solani (Rs), and Septoria tritici (St). Compounds to be tested were dissolved in DMSO at 2.5 mg/ml to produce compound stock solutions (“stocks”). Stocks were diluted with DMSO by a five-fold dilution in a 96-well stock plate, and two sets of final concentrations of 50, 10, and 2 ppm or 2, 0.4, and 0.08 ppm were obtained in vitro. A set of positive controls was also prepared, with various concentrations of Soraphen (2, 0.4, and 0.08 ppm), Metalaxyl (1.1, 0.22, and 0.04 ppm), and Metconazole (2, 0.4, and 0.08 ppm or 0.2, 0.04, and 0.008 ppm) after the five-fold dilutions. Negative controls on each plate included 2% DMSO, water, and a blank (media+2% DMSO). Fungal spores were isolated from previously sub-cultured plates of Botrtyis cinerea (Bc), Collectotrichum graminicola (Cg), Diplodia maydis (Dm), Fusarium moniliforme (Fm), Fusarium virguliforme (Fv), Phytophthora capsici (Pc), and Septoria tritici (St). The isolated spores were diluted to individual concentrations with a 17% V8 liquid media. For Rhizoctonia solani (Rs) and Pythium irregulare, 1.5 mm mycelial plugs were used in place of spores and ¼ Potato Dextrose Broth (PDB) was used for dilution. The spore concentrations and plug sizes were based on growth curves generated at 48 hours for each pathogen. In a second 96-well plate, the spores or mycelial plugs, media, diluted compound solutions, and controls were combined. Once the compound was added, a true final concentration of compound in each well was measured by an OD600 reading, which adjusted for any compound precipitation that might have occurred in the well. Plate readings were repeated at both 24 and 48 hours. The blank negative control was used as a background subtraction. Additional visual ratings were performed at both 24 and 48 hours for checking on precipitation and confirming efficacy. Visual and OD600 ratings of the compounds at 48 hours were compared to the 2% DMSO negative control, and the percent of pathogen growth inhibition was determined based on those values.

[2] = system: Blumeria graminis f sp. hordei; experiment: Foliar protection test, barley powdery mildew control; assay type: in vivo, Blumeria graminis f sp. hordei on Hordeum vulgare cv. Perry; conditions: 168 h, read-out: Barley Powdery Mildew Control at 50 ppm
Experimental: Compounds of the present invention were evaluated in a foliar protection test to determine the ability to control barley powdery mildew. Plants (Hordeum vulgare cv. Perry) were grown for 6 days in 2-inch square pots containing Metromix 200 medium amended with fertilizer. For propagation, plants were maintained in a growth chamber at conditions of 20 to 21° C., 16 hour light cycle, 400 uM of light, 70% humidity, and with sub-irrigation as needed. After inoculation with the pathogen of Blumeria graminis f sp. hordei, plants were kept at conditions of 20 to 22° C., 70% relative humidity, and 200 uM of light to facilitate infection and disease development. At 6 days after planting (1st true leaf fully expanded), the test compounds were dissolved in a solution of 5% acetone and 0.005% Tween 80 surfactant. An atomizer was used for applying the solution onto both sides of the leaves until thoroughly wetted. The amount of the compound applied to the leaves was typically 200, 100, 50, 10, or 2 ppm, but it may vary. At 24 hours after treatment, the plants were moved to a cooler chamber and inoculated by shaking well-colonized, untreated stock plants above the treated plants. This allowed producing a settling cloud of spores and resulting in uniform infection. Efficacy was evaluated in 7 days later by examining leaves for colonization and growth of mildew. Table 5 lists the results of barley powdery mildew control at a compound concentration of 50 ppm or 10 ppm. Compounds having an activity designated as “AA” provided a compound having >85% control of barley powdery mildew; compounds having an activity designated as “A” provided a compound having from 70% to 84% control of barley powdery mildew; compounds having an activity designated as “B” provided a compound having from 50 to 69% control of barley powdery mildew; compounds having an activity designated as “C” provided a compound having from 25 to 49% control of barley powdery mildew; and compounds having an activity designated as “D” provided a compound having <25% control of barley powdery mildew.

Botrtyis cinerea (Bc) = experiment: Growth inhibition assay of fungal pathogens, Bc; assay type: cell-based; conditions: read-out: Concentration at 90% Inhibition, Bc
Experimental: as §1

Septoria tritici (St) = experiment: Growth inhibition assay of fungal pathogens, St; assay type: cell-based; conditions: Zymoseptoria tritici, read-out: Concentration at 90% Inhibition, St
Experimental: as §1

[3] = compound concentration 10 ppm, foliar spray, evaluated 7 days after inoculation
[4] = system: Fusarium virguliforme (Fv); experiment: Growth inhibition assay of fungal pathogens, Fv; assay type: cell-based; conditions: read-out: Concentration at 90% Inhibition, Fv
Experimental: as §1

[5] = system: Collectotrichum graminicola (Cg); experiment: Growth inhibition assay of fungal pathogens, Cg; assay type: cell-based; conditions: read-out: Concentration at 90% Inhibition, Cg
Experimental: as §1

Fungal ACC2 = Fungal ACC2 (UniProt Q00955); conditions: read-out: Fungal ACC2 (IC50, in vitro ACC2 inhibition)
Diplodia maydis (Dm) = experiment: Growth inhibition assay of fungal pathogens, Dm; assay type: cell-based; conditions: Stenocarpella maydis, read-out: Concentration at 90% Inhibition, Dm
Experimental: as §1

Rhizoctonia solani (Rs) = experiment: Growth inhibition assay of fungal pathogens, Rs; assay type: cell-based; conditions: read-out: Concentration at 90% Inhibition, Rs
Experimental: as §1

[6] = system: Phytophthora capsici (Pc); experiment: Growth inhibition assay of fungal pathogens, Pc; assay type: cell-based; conditions: read-out: Concentration at 90% Inhibition, Pc
Experimental: as §1

Human ACC2 = Human ACC2 (Homo sapiens, UniProt O00763); experiment: In vitro ACC2 inhibition assay (ADP-Glo), human ACC2; assay type: biochemical; conditions: 5 nM ACC2, 20 μM ATP, 20 μM acetyl-CoA
C. krusei ATCC 6258 = experiment: Anti-Fungal Activity Assay (broth microtiter MIC), C. krusei; assay type: cell-based, Candida krusei; conditions: Pichia kudriavzevii, ATCC6258, 48 h, 3 replicates; MIC recorded at 48 h; read-out: MIC C. krusei ATCC 6258
Summary of the method: (§2)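 MIC taken as visual growth inhibition versus the growth control, mostly at 48 h (soraphen also at 24 h). Following CLSI M27-A3, colonies grown overnight at 35° C on Sabouraud dextrose agar were suspended in RPMI 1640+MOPS; test agents came from 1 mg/mL DMSO stocks.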

[7] = system: C. parapsilosis ATCC 22019; experiment: Anti-Fungal Activity Assay (broth microtiter MIC), C. parapsilosis; assay type: cell-based, Candida parapsilosis; conditions: Lodderomyces parapsilosis, ATCC22019, 48 h, 3 replicates; MIC recorded at 48 h; read-out: MIC C. parapsilosis ATCC 22019
Summary of the method: as §2

C. albicans ATCC 90028 = experiment: Anti-Fungal Activity Assay (broth microtiter MIC), C. albicans; assay type: cell-based, Candida albicans; conditions: Candida albicans, ATCC90028, 48 h, 3 replicates; MIC recorded at 48 h; read-out: MIC C. albicans ATCC 90028
Summary of the method: as §2

[8] = compound concentration 50 ppm, foliar spray, evaluated 7 days after inoculation

Human ACC2, sequence (O00763 whole entry): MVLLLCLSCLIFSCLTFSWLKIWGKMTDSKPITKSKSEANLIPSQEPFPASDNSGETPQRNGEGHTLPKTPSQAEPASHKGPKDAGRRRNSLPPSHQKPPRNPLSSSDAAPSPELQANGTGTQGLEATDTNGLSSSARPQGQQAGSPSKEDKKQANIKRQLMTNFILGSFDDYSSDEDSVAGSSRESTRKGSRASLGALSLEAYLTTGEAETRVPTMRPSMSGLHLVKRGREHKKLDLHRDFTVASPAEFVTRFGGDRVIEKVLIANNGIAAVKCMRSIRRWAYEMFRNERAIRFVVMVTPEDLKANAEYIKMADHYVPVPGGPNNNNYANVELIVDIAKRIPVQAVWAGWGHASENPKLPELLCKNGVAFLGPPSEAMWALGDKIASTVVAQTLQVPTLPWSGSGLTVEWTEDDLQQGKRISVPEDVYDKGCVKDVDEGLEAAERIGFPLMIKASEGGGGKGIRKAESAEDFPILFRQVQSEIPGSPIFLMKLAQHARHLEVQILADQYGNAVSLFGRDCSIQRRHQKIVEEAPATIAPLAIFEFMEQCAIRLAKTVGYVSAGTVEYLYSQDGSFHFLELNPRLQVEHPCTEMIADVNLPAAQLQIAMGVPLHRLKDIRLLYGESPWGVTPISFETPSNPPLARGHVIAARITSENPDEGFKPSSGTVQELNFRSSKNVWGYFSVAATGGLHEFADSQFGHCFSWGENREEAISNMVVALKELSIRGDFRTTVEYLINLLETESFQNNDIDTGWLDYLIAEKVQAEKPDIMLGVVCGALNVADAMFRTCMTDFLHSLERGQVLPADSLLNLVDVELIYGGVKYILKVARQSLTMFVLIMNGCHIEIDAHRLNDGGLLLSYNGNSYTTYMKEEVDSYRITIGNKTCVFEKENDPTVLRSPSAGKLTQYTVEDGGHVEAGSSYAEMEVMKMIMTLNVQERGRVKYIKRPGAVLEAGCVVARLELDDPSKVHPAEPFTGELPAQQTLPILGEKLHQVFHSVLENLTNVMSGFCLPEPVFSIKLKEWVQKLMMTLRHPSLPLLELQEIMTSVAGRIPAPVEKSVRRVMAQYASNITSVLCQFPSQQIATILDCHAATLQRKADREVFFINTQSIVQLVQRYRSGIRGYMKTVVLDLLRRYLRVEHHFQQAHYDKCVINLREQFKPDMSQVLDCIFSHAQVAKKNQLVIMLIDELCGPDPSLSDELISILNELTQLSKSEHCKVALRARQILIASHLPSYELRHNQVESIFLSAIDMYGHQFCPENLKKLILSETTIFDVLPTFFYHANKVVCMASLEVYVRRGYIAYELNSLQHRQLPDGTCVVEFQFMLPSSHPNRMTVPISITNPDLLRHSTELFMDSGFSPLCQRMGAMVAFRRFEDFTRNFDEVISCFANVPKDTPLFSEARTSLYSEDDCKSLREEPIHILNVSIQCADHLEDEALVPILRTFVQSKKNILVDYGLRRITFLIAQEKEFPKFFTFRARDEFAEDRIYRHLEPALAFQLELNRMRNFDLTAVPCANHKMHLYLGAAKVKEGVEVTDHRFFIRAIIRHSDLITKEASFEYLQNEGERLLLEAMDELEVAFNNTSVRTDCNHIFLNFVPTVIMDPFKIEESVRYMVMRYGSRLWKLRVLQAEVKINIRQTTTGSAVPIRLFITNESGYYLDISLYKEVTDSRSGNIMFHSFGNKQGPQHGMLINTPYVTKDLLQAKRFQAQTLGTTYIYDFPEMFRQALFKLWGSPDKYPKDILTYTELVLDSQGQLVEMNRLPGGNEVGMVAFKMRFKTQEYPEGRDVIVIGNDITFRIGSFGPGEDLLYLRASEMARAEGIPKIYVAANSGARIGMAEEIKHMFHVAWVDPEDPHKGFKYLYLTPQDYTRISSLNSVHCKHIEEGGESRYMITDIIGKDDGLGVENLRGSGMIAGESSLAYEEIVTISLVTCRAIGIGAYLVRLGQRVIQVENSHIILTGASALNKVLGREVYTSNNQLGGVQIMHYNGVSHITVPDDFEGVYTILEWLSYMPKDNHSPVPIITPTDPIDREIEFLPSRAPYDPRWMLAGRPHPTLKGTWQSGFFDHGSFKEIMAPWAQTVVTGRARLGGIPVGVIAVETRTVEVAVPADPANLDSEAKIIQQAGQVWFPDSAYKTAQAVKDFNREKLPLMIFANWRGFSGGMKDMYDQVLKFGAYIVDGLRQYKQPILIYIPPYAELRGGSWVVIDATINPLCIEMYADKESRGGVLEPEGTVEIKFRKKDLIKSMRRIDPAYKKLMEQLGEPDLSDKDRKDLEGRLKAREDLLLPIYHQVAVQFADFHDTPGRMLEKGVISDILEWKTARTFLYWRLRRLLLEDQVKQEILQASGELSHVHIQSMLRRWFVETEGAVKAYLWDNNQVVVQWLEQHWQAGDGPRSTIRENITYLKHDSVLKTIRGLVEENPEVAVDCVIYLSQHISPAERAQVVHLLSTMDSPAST
Fungal ACC2, sequence (Q00955 whole entry): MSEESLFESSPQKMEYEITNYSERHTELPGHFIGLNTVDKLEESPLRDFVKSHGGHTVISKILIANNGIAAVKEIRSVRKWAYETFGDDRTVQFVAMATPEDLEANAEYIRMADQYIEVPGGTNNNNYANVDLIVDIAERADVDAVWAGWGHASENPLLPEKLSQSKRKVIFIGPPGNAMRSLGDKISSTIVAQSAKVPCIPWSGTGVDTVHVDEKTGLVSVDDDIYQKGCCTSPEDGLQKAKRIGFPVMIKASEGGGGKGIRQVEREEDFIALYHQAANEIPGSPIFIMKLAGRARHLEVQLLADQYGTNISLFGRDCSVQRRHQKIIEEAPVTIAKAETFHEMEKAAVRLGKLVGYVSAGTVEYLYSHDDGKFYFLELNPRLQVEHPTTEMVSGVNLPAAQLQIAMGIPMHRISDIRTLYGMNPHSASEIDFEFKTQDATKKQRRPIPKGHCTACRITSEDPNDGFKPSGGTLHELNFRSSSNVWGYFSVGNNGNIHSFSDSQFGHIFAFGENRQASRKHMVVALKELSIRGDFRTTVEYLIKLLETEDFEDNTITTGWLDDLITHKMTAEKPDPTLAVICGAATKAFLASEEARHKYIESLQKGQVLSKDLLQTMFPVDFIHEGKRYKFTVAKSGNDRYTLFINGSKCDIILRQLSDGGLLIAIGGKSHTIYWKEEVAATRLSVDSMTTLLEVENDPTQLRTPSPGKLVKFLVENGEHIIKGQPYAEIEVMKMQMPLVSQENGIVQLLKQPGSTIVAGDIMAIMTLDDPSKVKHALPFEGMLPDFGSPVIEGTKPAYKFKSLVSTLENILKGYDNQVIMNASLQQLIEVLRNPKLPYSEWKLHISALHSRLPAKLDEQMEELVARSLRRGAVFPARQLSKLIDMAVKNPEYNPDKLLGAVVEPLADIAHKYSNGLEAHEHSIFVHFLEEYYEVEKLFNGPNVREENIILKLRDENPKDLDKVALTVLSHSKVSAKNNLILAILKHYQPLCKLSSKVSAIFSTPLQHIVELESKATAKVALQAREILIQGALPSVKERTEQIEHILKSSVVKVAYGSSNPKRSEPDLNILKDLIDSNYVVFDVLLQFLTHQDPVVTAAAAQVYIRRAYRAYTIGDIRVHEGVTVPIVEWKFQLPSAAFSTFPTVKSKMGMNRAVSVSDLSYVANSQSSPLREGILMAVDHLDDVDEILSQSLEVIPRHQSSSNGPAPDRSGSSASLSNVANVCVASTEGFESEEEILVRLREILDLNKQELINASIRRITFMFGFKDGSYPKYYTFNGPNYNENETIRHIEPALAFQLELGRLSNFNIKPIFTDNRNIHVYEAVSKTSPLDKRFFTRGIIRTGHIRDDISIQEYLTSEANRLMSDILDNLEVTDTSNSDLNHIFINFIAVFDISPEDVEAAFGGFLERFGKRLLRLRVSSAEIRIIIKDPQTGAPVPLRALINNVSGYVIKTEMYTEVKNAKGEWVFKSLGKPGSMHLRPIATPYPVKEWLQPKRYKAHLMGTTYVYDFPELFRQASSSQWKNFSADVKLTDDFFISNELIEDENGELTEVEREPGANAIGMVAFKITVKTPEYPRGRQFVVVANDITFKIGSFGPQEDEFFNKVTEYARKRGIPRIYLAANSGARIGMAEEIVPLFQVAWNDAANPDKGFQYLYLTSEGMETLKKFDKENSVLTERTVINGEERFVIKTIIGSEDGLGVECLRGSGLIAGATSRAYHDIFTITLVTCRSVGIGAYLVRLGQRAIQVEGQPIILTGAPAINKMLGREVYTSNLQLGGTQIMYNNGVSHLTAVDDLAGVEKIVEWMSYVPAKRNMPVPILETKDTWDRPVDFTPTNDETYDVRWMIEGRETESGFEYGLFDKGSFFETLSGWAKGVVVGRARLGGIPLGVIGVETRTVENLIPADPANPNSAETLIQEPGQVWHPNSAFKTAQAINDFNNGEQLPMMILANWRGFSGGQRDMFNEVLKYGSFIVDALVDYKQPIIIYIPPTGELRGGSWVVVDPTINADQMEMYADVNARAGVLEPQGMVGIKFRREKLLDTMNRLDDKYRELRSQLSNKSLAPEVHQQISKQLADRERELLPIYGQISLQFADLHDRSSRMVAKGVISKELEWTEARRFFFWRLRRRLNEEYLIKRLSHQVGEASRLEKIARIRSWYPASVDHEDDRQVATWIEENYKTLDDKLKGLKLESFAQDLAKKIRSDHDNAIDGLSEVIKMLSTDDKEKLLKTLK

SMILES	Barley Powdery Mildew Control at 10 ppm [3]	IC50 (Human ACC2) [nM]	IC90 ([1]; 48 hours) [µg/mL]	pest or weed control at 50 ppm [2, 8] [%]	IC90 (Botrtyis cinerea (Bc); 48 hours) [µg/mL]	IC90 (Septoria tritici (St); 48 hours) [µg/mL]	IC90 ([4]; 48 hours) [µg/mL]	IC90 ([5]; 48 hours) [µg/mL]	MIC (C. krusei ATCC 6258) [µg/mL]	MIC [7] [µg/mL]	IC90 (Diplodia maydis (Dm); 48 hours) [µg/mL]	IC90 (Rhizoctonia solani (Rs); 48 hours) [µg/mL]	MIC (C. albicans ATCC 90028) [µg/mL]	IC90 ([6]; 48 hours) [µg/mL]	further results
COCCO[C@@H](Cn1c(=O)n([C@@H]2CCNC2=O)c(=O)c2c(C)c(-n3nccn3)sc21)c1cc(F)ccc1OC [Compound I-26, 1-((R)-2-(5-fluoro-2-methoxyphenyl)-2-(2-methoxy-ethoxy)ethyl)-5-methyl-3-((R)-2-oxopyrrolidin-3-yl)-6-(2H-1,2,3-triazol-2-yl)thieno[2,3-d]pyrimidine-2,4(1H,3H)-dione]	D (provided a compound having <25% control of barley powdery mildew)	2 to 10													IC90 ([1]; 48 h): 2 µg/mL (≈ 3.58 µM); pest or weed control at 50 ppm ([2]; foliar): 70 to 84%; IC90 (Botrtyis cinerea (Bc); 48 h): 10 µg/mL (≈ 17.9 µM); IC90 (Septoria tritici (St); 48 h): > 50 µg/mL; IC90 ([4]; 48 h): 10 µg/mL (≈ 17.9 µM); IC90 ([5]; 48 h): > 50 µg/mL; IC50 (Fungal ACC2): 0.7 to 2 nM; IC90 (Diplodia maydis (Dm); 48 h): > 50 µg/mL; IC90 (Rhizoctonia solani (Rs); 48 h): > 50 µg/mL; IC90 ([6]; 48 h): > 50 µg/mL
COc1ccc(F)cc1[C@H](Cn1c(=O)n([C@@H]2CCN(C(C)C)C2=O)c(=O)c2c(C)c(-n3nccn3)sc21)OCCO [Compound I-85, 1-((R)-2-(5-fluoro-2-methoxyphenyl)-2-(2-hydroxy-ethoxy)ethyl)-3-((S)-1-isopropyl-2-oxopyrrolidin-3-yl)-5-methyl-6-(2H-1,2,3-triazol-2-1)thieno[2,3-d]pyrimidine-2,4(1H,3H)-dione]	C (provided a compound having from 25 to 49% control of barley powdery mildew)	10 to 100	2 (≈ 3.41 µM)	70 to 84	2 (≈ 3.41 µM)	> 50	2 (≈ 3.41 µM)	2 (≈ 3.41 µM)	2.1 to 4 (≈ 3.58 to 6.82 µM)	2.1 to 4 (≈ 3.58 to 6.82 µM)	2 (≈ 3.41 µM)	2 (≈ 3.41 µM)	2.1 to 4 (≈ 3.58 to 6.82 µM)	> 50	
COc1ccc(F)cc1[C@H](Cn1c(=O)n([C@@H]2CCCN(C(C)C)C2=O)c(=O)c2c(C)c(-n3nccn3)sc21)OCCO [Compound I-75, 1-((R)-2-(5-fluoro-2-methoxyphenyl)-2-(2-hydroxy-ethoxy)ethyl)-3-((R)-1-isopropyl-2-oxopiperidin-3-yl)-5-methyl-6-(2H-1,2,3-triazol-2-yl)thieno[2,3-d]pyrimidine-2,4(1H,3H)-dione]	D (provided a compound having <25% control of barley powdery mildew)	10 to 100	2 (≈ 3.33 µM)	50 to 69	2 (≈ 3.33 µM)	> 50	10 (≈ 16.6 µM)	10 (≈ 16.6 µM)	2.1 to 4 (≈ 3.5 to 6.66 µM)	2.1 to 4 (≈ 3.5 to 6.66 µM)	10 (≈ 16.6 µM)	2 (≈ 3.33 µM)	2.1 to 4 (≈ 3.5 to 6.66 µM)	> 50	
